Test results reported in US20220257767A1, “IONIC LIQUIDS FOR DRUG DELIVERY” (PRESIDENT AND FELLOWS OF HARVARD COLLEGE, priority 2019, published 2022).
Converted amounts (≈) assume the structure as drawn. “Also recorded” adds a separate entry of the source.

test system: porcine skin; assay: not given; details: not given

Acarbose: Rank | Average Rank | Ruxolitinib: Rank | delivery/transport of acarbose into skin (in words) | delivery/transport of ruxolitinib into skin (in words) | Compound
1 | 1 | 3 | highest delivery efficacy | highest delivery efficacy | Choline geranate [CAGE] [listing 1 of 2 here]
2 | 5 | 8 |  |  | Choline geranate [CAGE] [listing 2 of 2 here]

test system: not listed separately; assay: Solubility of the model drugs in PBS and in CAGE variants; format: physicochemical; details: PBS, aqueous buffer

Compound | solubility [µg/mL]
N#CC[C@H](C1CCCC1)n1cc(-c2ncnc3[nH]ccc23)cn1 [ruxolitinib] | 200 (≈ 653 µM)
C[C@H]1O[C@H](O[C@H]2[C@H](O)[C@@H](O)[C@@H](O[C@H]3[C@H](O)[C@@H](O)C(O)O[C@@H]3CO)O[C@@H]2CO)[C@H](O)[C@@H](O)[C@@H]1N[C@H]1C=C(CO)[C@@H](O)[C@H](O)[C@H]1O (stereo partly drawn) [Acarbose, acarbose] | ≥ 1000

test system: not given; assay: not given; details: exemplary anions, Table 5; cited from earlier work

Compound | pKa | LogP
O=C(O)CCCCCCCC(=O)O [Nonanedioic Acid] | 4.55 | 
COc1cc(/C=C/C(=O)O)ccc1O [(E)-3-(4-hydroxy-3-methoxy-phenyl)prop-2-enoic acid] | 4.42 | 
O=C(O)C(O)c1ccccc1 (stereo not drawn) [Hydroxyl(phenyl)acetic acid] | 3.41 | 1.2
CCCCC/C=C/C(=O)O [Octenoic Acid, trans-2-octenoic acid] | 5.05 | 2.9
O=C(O)c1ccccc1O [Salicylic Acid] |  | 2.2
CC(C)=CCCC(C)CC(=O)O (stereo not drawn) [Citronellic Acid, 3,7-dimethyl-6-octenoic acid] | 5.19 | 2.8
CCCCCCCC(=O)O [Octanoic Acid] | 4.895 | 3.01
O=C(O)CCCC[C@@H]1CCSS1 [(R)-5-(1,2-dithiolan-3-yl)pentanoic acid] | 5.10 | 
CN(C)CCO [2-(dimethylamino)ethanol] | 9.3 | 
O=C(O)CCCC(=O)O [Glutaric Acid] | 4.34 | −0.29
Decenoic Acid | 5.03 | 4.02
Hexenoic Acid | 5.13 | 1.8
CC(C)=CCC/C(C)=C/C(=O)O [Geranic Acid] | 5.26 | 2.72
CC(C)C(=O)O [2-methylpropanoic acid] |  | 0.73
CCCCC(CC)COS(=O)(=O)[O-].[Na+] (stereo not drawn) [2-ethylhexyl sulfate] |  | 3.10
CCCCCCC(O)C(=O)O (stereo not drawn) [2-hydroxyoctanoic acid] | 4.42 | 1.8
CCC(O)CCCCCCC(=O)O (stereo not drawn) [8-hydroxycapric acid] |  | 2.2

test system: not given; assay: not given; details: model drugs; cited from earlier work

Compound | Log P
N#CC[C@H](C1CCCC1)n1cc(-c2ncnc3[nH]ccc23)cn1 [ruxolitinib] | 2.9

test system: porcine skin; assay: Skin penetration studies using porcine skin in Franz diffusion cells, drug quantified by HPLC; details: 24 h, listed as pure geranic acid

Compound | delivery/transport of acarbose into skin (in words) | delivery/transport of ruxolitinib into skin (in words)
CC(C)=CCC/C(C)=C/C(=O)O [Geranic Acid] | no significant transport; also recorded: did not yield a noticeable skin flux | no significant transport; also recorded: did not yield a noticeable skin flux
